Source: patent publication US20100113438A1, “CLASS OF HISTONE DEACETYLASE INHIBITORS” (DAC S.R.L., priority 2006, published 2010)

How the values were obtained:
[1] = Metabolic stability in hepatic microsomes (human); assay type: in vitro ADME; conditions: human hepatic microsomes 0.5 mg/ml, compound 1 μM, 37° C., pH 7.4, 30 min
Procedure: (§1) The test compound was dissolved in DMSO at the final concentration of 1 μM and pre-incubated for 10 min at 37° C. in potassium phosphate buffer pH 7.4 together with mouse or human hepatic microsomes (Xenotech) at the final concentration of 0.5 mg/ml.
(§2) After the pre-incubation the reaction was started by adding the cofactor mixture (NADP, G6P, G6P-DH); aliquots were taken at time 0 and 30 min, added to acetonitrile in order to stop the reaction. After centrifugation the supernatant was separated and analyzed by LC-MS/MS.
(§3) A control sample without cofactor was always studied in parallel in order to check the chemical stability of the test compound.
(§4) Two reference compounds of known metabolic stability 7-ethoxycoumarin and propranolol were present each time to access the validity of the experiment.
(§5) A fixed concentration of verapamil was added in each sample as internal standard for the LC-MS/MS analysis.
(§6) The percentage of the compound remaining after 30 min incubation period was calculated according the following equation: [area at time 30 min]/[area at time 0 min]*100%.

[2] = tested on: HDAC (nuclear extract of HeLa cells); test: Assay of enzyme inhibition of HDAC (BIOMOL Kit); assay type: biochemical; conditions: substrate 116 μM
Procedure: The in-vitro activity of HDAC inhibitors was assayed by means of a biochemical assay using a BIOMOL Kit, according to the recommended experimental conditions. […] The samples were incubated for 10 minutes at room temperature and then exposed to a developer (15 minutes at room temperature). In this last step a fluorophore was produced, whose fluorescence was measured using an excitation wavelength of 355 nm and an emission at 460 nm.

[3] = Metabolic stability in hepatic microsomes (mouse); assay type: in vitro ADME; conditions: mouse hepatic microsomes 0.5 mg/ml, compound 1 μM, 37° C., pH 7.4, 30 min
Procedure: as §1, §2, §3, §4, §5, §6

| SMILES | Met. human (percentage of the compound remaining after 30 min incubation) [1] [%] | IC50 [2] [nM] | Met. mouse (percentage of the compound remaining after 30 min incubation) [3] [%] |
| --- | --- | --- | --- |
| CC(=O)N1CCN(c2ccc(C(=O)/C=C/c3ccc(/C=C/C(=O)NO)nc3)cc2)CC1 [Example 42, (E)-3-(5-{(E)-3-[4-(4-Acetyl-piperazin-1-yl)-phenyl]-3-oxo-propenyl}-pyridin-2-yl)-N-hydroxy-acrylamide] | 35.27 | 4.8 | 50.47 |
| CN1CCN(c2cc(Cl)cc(C(=O)/C=C/c3ccc(/C=C/C(=O)NO)cc3)c2)CC1 [Example 25, (E)-3-(4-{(E)-3-[3-Chloro-5-(4-methyl-piperazin-1-yl)-phenyl]-3-oxo-propenyl}-phenyl)-N-hydroxy-acrylamide] | 57.28 | 35 | 84.89 |
| O=C(/C=C/c1ccc(/C=C/C(=O)c2ccc(N3CCNCC3)cc2)cn1)NO [Example 45, (E)-N-Hydroxy-3-{5-[(E)-3-oxo-3-(4-piperazin-1-yl-phenyl)-propenyl]-pyridin-2-yl}-acrylamide] | 53.65 | 0.7 | 43.41 |
| COc1cc(C(=O)/C=C/c2ccc(/C=C/C(=O)NO)cc2)ccc1CN1CCOCC1 [Ref (*) 48, reference compound] | 35.28 |  | 2.8 |
| CN1CCN(Cc2ccc(C(=O)/C=C/c3ccc(/C=C/C(=O)NO)cc3)cc2)CC1 [Example 7, (E)-N-Hydroxy-3-(4-{(E)-3-[4-(4-methyl-piperazin-1-yl-methyl)-phenyl]-3-oxo-propenyl}-phenyl)-acrylamide] | 61.16 |  | 16.75 |
| O=C(/C=C/c1ccc(/C=C/C(=O)c2ccccc2)cn1)NO [Ref (*) 69, reference compound] | 13.74 |  | 5.65 |
| C[C@@H]1CN(c2cccc(C(=O)/C=C/c3ccc(/C=C/C(=O)NO)nc3)c2)C[C@H](C)N1C [Example 43, (E)-N-Hydroxy-3-(5-{(E)-3-oxo-3-[3-((3R,5S)-3,4,5-trimethyl-piperazin-1-yl)-phenyl]-propenyl}-pyridin-2-yl)-acrylamide] | 37.29 | 4 | 42.45 |
| O=C(/C=C/c1ccc(/C=C/C(=O)c2ccc(N3CCNCC3)cc2)cc1)NO [Example 15, (E)-N-Hydroxy-3-{4-[(E)-3-(4-piperazin-1-yl-phenyl)-3-oxo-propenyl]-phenyl}-acrylamide] | 42.58 |  | 30.5 |
| CC(=O)N1CCN(Cc2ccc(C(=O)/C=C/c3ccc(/C=C/C(=O)NO)cc3)cc2)CC1 [Example 30, (E)-3-(4-{(E)-3-[4-(4-Acetyl-piperazin-1-ylmethyl)-phenyl]-3-oxo-propenyl}-phenyl)-N-hydroxy-acrylamide] |  | 25 |  |
| O=C(/C=C/c1ccc(/C=C/C(=O)c2ccc(F)c(F)c2)cn1)NO [Ref (*) 72, reference compound] | 15.32 | 20 | 10.83 |
| CN1CCC(Cc2ccc(C(=O)/C=C/c3ccc(/C=C/C(=O)NO)nc3)cc2)CC1 [Example 44, (E)-N-Hydroxy-3-(5-{(E)-3-[4-(1-methyl-piperidin-4-ylmethyl)-phenyl]-3-oxo-propenyl}-pyridin-2-yl)-acrylamide] | 34.38 | 1.3 | 54.56 |
| CN1CCN(c2ccc(C(=O)/C=C/c3ccc(/C=C/C(=O)NO)cc3)cc2)CC1 [Ref (*) 59, reference compound] | 33.29 |  | 9.12 |
| CN1CCN(c2ccccc2C(=O)/C=C/c2ccc(/C=C/C(=O)NO)cc2)CC1 [Example 1, (E)-N-Hydroxy-3-(4-{(E)-3-[2-(4-methyl-piperazin-1-yl)-phenyl]-3-oxo-propenyl}-phenyl)-acrylamide] | 38.16 |  | 33.81 |
| O=C(/C=C/c1ccc(/C=C/C(=O)c2ccc(N3CCOCC3)cc2)c(F)c1)NO [Ref (*) 29, reference compound] | 20.86 | 282 | 11.17 |
| CN1CCN(Cc2ccccc2C(=O)/C=C/c2ccc(/C=C/C(=O)NO)nc2)CC1 [Example 47, (E)-N-Hydroxy-3-(5-{(E)-3-[2-(4-methyl-piperazin-1-ylmethyl)-phenyl]-3-oxo-propenyl}-pyridin-2-yl)-acrylamide] | 93.48 |  | 52.66 |
| O=C(/C=C/c1ccc(/C=C/C(=O)c2ccc(CN3CCNCC3)cc2)cc1)NO [Example 26, (E)-N-Hydroxy-3-{4-[(E)-3-oxo-3-(4-piperazin-1-ylmethyl-phenyl)-propenyl]-phenyl}-acrylamide] | 50.84 |  | 42.41 |
| O=C(/C=C/c1ccc(/C=C/C(=O)c2cccs2)cn1)NO [Ref (*) 71, reference compound] | 21.82 | 67.5 | 6.04 |
| C[C@@H]1CN(c2ccc(C(=O)/C=C/c3ccc(/C=C/C(=O)NO)nc3)cc2)C[C@H](C)N1C [Example 39, (E)-N-Hydroxy-3-(5-{(E)-3-oxo-3-[4-((3R,5S)-3,4,5-trimethyl-piperazin-1-yl)-phenyl]-propenyl}-pyridin-2-yl)-acrylamide] | 44.35 | 6.1 | 20.29 |
| CN(C)C1CCN(c2ccc(C(=O)/C=C/c3ccc(/C=C/C(=O)NO)cc3)cc2)CC1 [Example 4, (E)-3-(4-{(E)-3-[4-(4-Dimethylamino-piperidin-1-yl)-phenyl]-3-oxo-propenyl}-phenyl)-N-hydroxy-acrylamide] | 41.88 |  | 14.00 |
| O=C(/C=C/c1ccc(/C=C/C(=O)c2ccc(N3CCOCC3)cc2)cc1)NO [Ref (*) 41, reference compound] | 8.66 | 238 | 2.76 |
